The text below walks through data of patent US20200255492A1, “LEPTIN PEPTIDES AND THEIR USE FOR TREATING NEUROLOGICAL DISORDERS” (UNIVERSITY OF DUNDEE, priority 2017, published 2020).

The test system of assay [1] is differentiated human neural cells (SH-SY5Y). Kind of assay: LDH release assay (membrane leakage, cell death). It is filed as cell-based. As to conditions: for reduction of LDH release compared with Aβ1-42 alone, hexamer study: n=11; for reduction of LDH release in Aβ1-42 treated cells: n=5; for reduction of LDH release compared with CuCl2 alone: 5 μM CuCl2. On the procedure:
The human neuroblastoma cell line, SH-SY5Y (ECACC, UK) was maintained in Dulbecco's Modified Eagle Medium supplemented with glucose ([…]) and 10% (v/v) cosmic calf serum (Fisher Scientific, UK) at 37° C. in a humidified atmosphere of 5% CO2, 95% air and allowed to reach 70-80% confluence before seeding. Cells (passage 10-18) were plated at 10 000 cells per well in 96 well tissue culture plates (Nunc, VWR, UK) and at a density of 2×10^5 cells in 35 mm dishes for protein extraction. To induce differentiation, cells were cultured in DMEM supplemented with glucose ([…]), 1% (v/v) cosmic calf serum and 10 μM retinoic acid for 5 days. Thereafter they were incubated in DMEM supplemented with glucose ([…]), serum replacement 2 (2%; Sigma, UK) and 18 μM 5-fluorodeoxyuridine to inhibit proliferation of undifferentiated cells. The 50% of the medium was changed every 2-3 days and pharmacological treatment was carried out 7 days after switching to this medium. Reagents used were (from Sigma UK unless stated) 0.1-10 nM human leptin and leptin (116-130); 0.1-10 nM leptin (22-56; Bachem; Switzerland); 10 nM leptin (116-121) leptin (117-122), leptin (124-129) or leptin (125-130; all Severn Biotech, UK); 5 μM copper chloride; […], 5 μM WP1066 or 50 nM wortmannin. All treatments were added to the culture at the same time and survival assays were carried out after 96 h treatment. Protein samples for signaling ELISA were extracted 3 h after exposure to the relevant reagents and for biomarker expression after 72 hours.
The concentration of lactate dehydrogenase (LDH) in the culture medium or the mitochondrial activity within cells was used to monitor the level of cell death, as previously (Oldreive and Doherty 2010). In certain experiments, a Crystal violet assay was used to assess total cell number. Cells were fixed in neutral buffered formalin and washed 3 times in PBS prior to staining with 0.01% crystal violet acetate for 5 min. Plates were washed 5-10 times in dH2O and cells solubilised in 100 μl dimethyl sulfoxide (DMSO) before reading the absorbance on a Biohit BP100 plate reader. For all assays, data is expressed as percentage relative to control, untreated wells to normalize for differences in plating density between individual experiments.
To determine whether leptin (116-130) has neuroprotective actions, the effects of leptin (116-130) on the viability of differentiated human neural cells (SH-SY5Y) was examined after exposure to either 5 μM CuCl2 or 10 μM Aβ1-42. Cells were treated with the toxin alone or with a range of concentrations (10-0.1 nM) of leptin or leptin (116-130). […] Thus like leptin, treatment with leptin (116-130) reduces neuronal death in response to AD-linked toxins in vitro.

Assay [2] deals with GluA1 surface expression in cultured hippocampal neurons. Kind of assay: Surface labelling of AMPA receptor subunit GluA1 (immunocytochemistry). As to conditions: for GluA1 surface expression, hexamer study: 10 nM, 15 min; for GluA1 surface expression, agent alone (PTEN study): bpV 50 nM, 30 min. It counts as cell-based, Sprague Dawley rats.
The test system of a further assay is hippocampal cultures. In words: Synaptophysin staining and surface GluA1-synaptophysin colocalization. It counts as cell-based, Sprague Dawley rats. To be noted: for colocalization between surface GluA1 and synaptophysin immunostaining: control 43±5.4%; for synaptophysin staining: leptin 50 nM, 30 min. The procedure: Hippocampal cultures were prepared from neonatal Sprague Dawley rats as before (O'Malley et al. 2007). Briefly, neonatal Sprague Dawley rats (1-3 days old) were killed by cervical dislocation in accordance with Schedule 1 of the United Kingdom Government Animals (Scientific Procedures) Act, 1986 and the hippocampi removed. After washing in HEPES buffered saline (HBS) comprising (mM): NaCl 135; KCl 5; CaCl2 1; MgCl2 1; HEPES 10; D-glucose 25 at pH 7.4; cells were treated with protease Type X and Type XIV (0.5 mg/ml; Sigma) for 25 min at room temperature. Dissociated cells were plated onto sterile dishes (Falcon 3001) treated with poly-1-lysine (20 μg/ml; 1-2 h) and maintained in MEM with serum replacement-2 (Sigma) in a humidified atmosphere of 5% CO2 and […] at 37° C. for up to 3 weeks.
To monitor GluA1 surface expression, immunocytochemistry was performed on hippocampal cultures (7-14 DIV) as before (Moult et al. 2010). […] Neurons were then fixed with 4% paraformaldehyde (5 min) before adding an appropriate fluorescently labelled secondary.
As excitatory synaptic strength is governed by the density of AMPA receptors expressed at synapses, the effects on synaptic AMPA receptors was examined by comparing the colocalization between surface GluA1 and synaptophysin immunolabelling in hippocampal cultures (Moult et al. 2010). […] Similarly, in hippocampal neurons treated with leptin (116-130), synaptophysin staining was increased to 122±9% (n=36; P<0.05) and a significant increase (to 64±4.9%; n=36; P<0.01) in GluA1-synaptophysin colocalization was observed (FIG. 2E). Conversely, exposure to leptin (22-56) had no significant effect on either synaptophysin staining (105±9%; n=36; P>0.05) or the degree of colocalization (49±5.4%; n=36; P>0.05; FIG. 2E).

Regarding “Aβ1-42: amyloid beta 1-42, toxin used in the AD models [reference compound]”, the “increase in LDH release, Aβ1-42 alone” value in assay [1] (10 μM Aβ1-42) was found to be 26.7±4.4%.

For the substance “CSLPQT (listed as Mus musculus) [leptin (117-122)]”, the “reduction of LDH release compared with Aβ1-42 alone, hexamer study” value (“reduction of LDH release … hexamer study” below) in assay [1] (10 nM, 10 μM Aβ1-42) worked out at 27.4±3.5%. Further, in assay [2], the “GluA1 surface expression, hexamer study” value was 167±10 % of control.

Turning to “SCSLPQ (listed as Mus musculus) [leptin (116-121)]”, in assay [1] (10 nM, 10 μM Aβ1-42), the “reduction of LDH release … hexamer study” value turned out to be 27.1±3.1%. Moreover, the “GluA1 surface expression, hexamer study” value in assay [2] is reported as 146±9 % of control.

Turning to “SCSLPQTSGLQKPES (listed as Mus musculus) [leptin (116-130)]”, in the assay with hippocampal cultures, the “colocalization between surface GluA1 and synaptophysin immunostaining” value turned out to be 64±4.9%; the synaptophysin staining was 122±9 % of control. In addition, in assay [1] (0.1 nM, 10 μM Aβ1-42), the “reduction of LDH release in Aβ1-42 treated cells” value is reported as 26.7±17.3%. For the same substance, in assay [1] (10 nM), the “reduction of LDH release compared with CuCl2 alone” value was 45.6±2.92%. Besides, in assay [1] (10 nM, 10 μM Aβ1-42), the “reduction of LDH release in Aβ1-42 treated cells” value amounted to 46.6±9% and the “reduction of LDH release … hexamer study” value is on record as 24.0 ± 2.2%. For the same substance, the “increase in LDH release with PI3-kinase inhibitor” value in assay [1] (leptin (116-130) and Aβ1-42-treated cells plus wortmannin (50 nM)) is recorded as 26.9±9.8%. For the same substance, in assay [1] (leptin (116-130) and Aβ1-42-treated cultures plus WP1066 (5 μM)), the “increase in LDH release with STAT3 inhibitor” value is listed as 18.3±3.2%. Moreover, in assay [2], the “GluA1 surface expression, hexamer study” value is on record as “increased GluA1 surface labelling” and the “GluA1 surface expression, agent alone (PTEN study)” value is listed as 167±10 % of control.

Regarding “leptin (22-56): leptin fragment amino acids 22-56 (Bachem), comparison fragment (VPIQKVQDDTKTLIKTIVTRINDISHTQSVSSKQK; UniProt P41159 22-56, looked up, fragment) [reference compound]”, in the assay on hippocampal cultures, the “colocalization between surface GluA1 and synaptophysin immunostaining” value is 49±5.4%; the synaptophysin staining is 105±9 % of control.

For “leptin: the metabolic hormone leptin, whole (full length) leptin molecule; human leptin from Sigma in SH-SY5Y work”, in the assay with hippocampal cultures, the “colocalization between surface GluA1 and synaptophysin immunostaining” value is 62±4.4%; the synaptophysin staining is 144±9 % of control. Moreover, in assay [1] (0.1 nM, 10 μM Aβ1-42), the “reduction of LDH release in Aβ1-42 treated cells” value was 31.8±13.2%. Further, in assay [1] (10 nM), the “reduction of LDH release compared with CuCl2 alone” value stood at 39.5±2.73%. Moreover, in assay [1] (10 nM, 10 μM Aβ1-42), the “reduction of LDH release in Aβ1-42 treated cells” value is reported as 47.9±7.45% and the “reduction of LDH release … hexamer study” value stood at 25.3±2.5%. Further, the “GluA1 surface expression, agent alone (PTEN study)” value in assay [2] is 140±7.2 % of control.
